Reference: patent US8759481B2, “Peptide vaccines for cancers expressing tumor-associated antigens” (Oncotherapy Science, Inc., priority 2007, dated 2014)
Entries after “also recorded” stand apart in the source; their conditions may differ.

Experiments:
Format in all cases: cell-based, human
[1] = system: peptide-pulsed A24-LCL cells; experiment: IFN-gamma ELISPOT assay (positive wells); conditions: HLA-A24 peptides; as compared to the control
In short: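 PBMC-derived DCs from HLA-A*2402 and/or A*0201 donors, pulsed with 20 micro g/ml peptide plus 3 micro g/ml beta 2-microglobulin, stimulated autologous CD8+ T cells three times (days 0, 7, 14). On day 21, responders were tested against peptide-pulsed A24-LCL or T2 cells by IFN-gamma ELISPOT. Values are reported as positive wells/wells tested; CTL lines confirmed by ELISA.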

[2] = system: peptide-pulsed A24-LCL cells; experiment: CTL line establishment, IFN-gamma ELISA; conditions: HLA-A24 peptides; vs target without peptide pulse
In short: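 CTL lines were expanded with MMC-inactivated B-lymphoblastoid feeders, 40 ng/ml anti-CD3 and IL-2 in AIM-V/5% AS. IFN-gamma ELISPOT identified specific wells, and ELISA determined established lines, using responders stimulated by peptide-pulsed A24-LCL or T2 cells at 1×10^4/well.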

[3] = system: peptide-pulsed A24-LCL cells; experiment: CTL clones by limiting dilution, specific CTL activity; conditions: HLA-A24 peptides; vs target without peptide pulse
Procedure: (§1) The dilutions were made to have 0.3, 1, and 3 CTLs/well in 96 round-bottomed micro titer plate (Nalge Nunc International). CTLs were cultured with 7×10^4 cells/well of 2 kinds of human B-lymphoblastoid cell lines, 30 ng/ml of anti-CD3 antibody, and 125 U/ml of IL-2 in total of 150 micro 1/well of AIM-V containing 5% AS. 50 micro 1/well of IL-2 was added to the medium 10 days later so that IL-2 became 125 U/ml in the final concentration. CTL activity of CTLs was tested on the 14th day, and CTL clones were expanded using the same method above.
(§2) Briefly, peptide-pulsed A24-LCL or T2 cell (1×10^4/well) was prepared as stimulator cells. Cultured Cells in 48 wells or CTL clones after limiting dilution were used as responder cells. IFN-gamma ELISPOT assay and ELISA assay were performed under manufacture procedure.

[4] = system: 293T transfected with full length INHBB gene and HLA-A*2402; experiment: Specific CTL activity against transfected target cells; conditions: CTL line or clone raised by the peptide, vs control transfectants
Procedure: as §2
(§3) The cDNA encoding an open reading frame of target genes or HLA-A02 or HLA-A24 was amplified by PCR. The PCR-amplified product was cloned into pcDNA3.1 myc-His vector (Invitrogen). The plasmids were transfected into the target cells, HLA-A02 and HLA-A24-null normal human cell line COS7 or 293T using lipofectamine (Invitrogen) according to the manufacturer's recommended procedures. Alternatively, the plasmid contained the target genes were transfected into A24-LCL by electroporation using GenePulserII (Biorad). Briefly, 2.5×10^6 A24-LCL cells were pulsed with 10 mcg prasmid at 140V and 1000 micro F. After 2 days from transfection, the transfected cells were treated with Cell dissociation solution and used as the target cells for CTL activity assay.
The established CTL line raised against these peptides were examined for their ability to recognize the target cells expressing INHBB and HLA-A*2402.

[5] = system: peptide-pulsed T2 cells; experiment: IFN-gamma ELISPOT assay (positive wells); conditions: HLA-A02 peptides; as compared to the control
In short: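 CD8+ T cells from HLA-A*2402 and/or HLA-A*0201 donors were stimulated 1:20 with autologous monocyte-derived DCs pulsed with 20 µg/ml peptide plus β2-microglobulin, in IL-7, with IL-2 added, restimulated on days 7 and 14. On day 21, IFN-γ ELISPOT against peptide-pulsed T2 or A24-LCL cells (1×10^4/well) scored wells as positive, with CTL lines confirmed by ELISA.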

[6] = system: peptide-pulsed T2 cells; experiment: CTL line establishment, IFN-gamma ELISA; conditions: HLA-A02 peptides; vs target without peptide pulse
Procedure: CTLs were expanded in culture using the method similar to that described by Riddell S R, et al., (Walter E A et al., (1995) N Engl J Med 333:1038-44; Riddel S R, et al., (1996) Nature Med. 2:216-23.). A total 5×10^4 of CTLs were resuspended in 25 ml of AIM-V/5% AS with 2 kinds of human B-lymphoblastoid cell lines, inactivated by MMC, in the presence of 40 ng/ml of anti-CD3 monoclonal antibody (Pharmingen). One day after initiating the cultures, 120 IU/ml of IL-2 were added to the cultures. The cultures were fed with fresh AIM-V/5% AS containing 30 IU/ml of IL-2 on days 5, 8 and 11.
as §2
Positive well number indicates the number of wells where specific IFN-gamma production can be detected by IFN-gamma ELISPOT assay. 4 to 8 wells can be prepared from one donor. This is shown as (positive wells number/the number of whole wells tested by IFN-gamma ELISPOT assay). Positive CTL line indicates the number of CTL line established from positive wells. The generation of CTL line is determined by ELISA. This is shown as (established CTL line number/the number of positive wells tested by IFN-gamma ELISPOT assay). No positive donor is not defined by no detectable positive wells, but by no established CTL line. […] No data at positive donor number, positive well number and positive CTL line indicating “−” means that the peptides can't be synthesized for any reason.
CTLs were expanded in culture using the method similar to the one described by Riddell et al. (Walter E A et al., N Engl J Med 1995 Oct. 19, 333(16): 1038-44; Riddell S R et al., Nat Med 1996 Feb., 2(2): 216-23). A total of 5×10^4 CTLs were suspended in 25 ml of AIM-V/5% AS medium with 2 kinds of human B-lymphoblastoid cell lines, inactivated by MMC, in the presence of 40 ng/ml of anti-CD3 monoclonal antibody (Pharmingen). One day after initiating the cultures, 120 IU/ml of IL-2 were added to the cultures. The cultures were fed with fresh AIM-V/5% AS medium containing 30 IU/ml of IL-2 on days 5, 8 and 11 (Tanaka H et al., Br J Cancer 2001 Jan. 5, 84(1): 94-9; Umano Y et al., Br J Cancer 2001 Apr. 20, 84(8): 1052-7; Uchida N et al., Clin Cancer Res 2004 Dec. 15, 10(24): 8577-86; Suda T et al., Cancer Sci 2006 May, 97(5): 411-9; Watanabe T et al., Cancer Sci 2005 August, 96(8): 498-506).
Specifically, peptide-pulsed T2 (1×10^4/well) was prepared as stimulator cells. Cultured cells in 48 wells were used as responder cells. IFN-gamma ELISPOT assay and IFN-gamma ELISA assay were performed under manufacture procedure.

[7] = system: peptide-pulsed T2 cells; experiment: CTL clones by limiting dilution, specific CTL activity; conditions: HLA-A02 peptides; vs target without peptide pulse
Procedure: as §1, §2

[8] = system: COS7 transfected with full length TTK gene and HLA-A*0201; experiment: Specific CTL activity against transfected target cells; conditions: vs control transfectants
Procedure: as §2, §3
The established CTL clone raised against these peptides were examined for their ability to recognize the target cells endogenously expressing TTK and HLA-A*0201. […] COS7 transfected with full length TTK but HLA-A*0201, COS7 transfected HLA-A*0201 but not full length of TTK (or replaced full length HIG2 gene) and COS7 transfected with HLA-A*0201 and pulsed with different target epitope peptide, were prepared as controls.

Row | Substance | IFN-gamma production by IFN-gamma ELISPOT assay [1] | Establishment of CTL line, specific CTL activity against the peptide-pulsed target determined by ELISA [2] | CTL activities of CTL clones against the peptide-pulsed target [3] | IFN-gamma production by IFN-gamma ELISPOT assay [5] | Establishment of CTL line, specific CTL activity against the peptide-pulsed target determined by ELISA [6] | CTL activities of CTL clones against the peptide-pulsed target [7] | also measured
1 | RVMESLEGL [SEQ ID NO: 111] | potent IFN-gamma production | CTL lines were established | potent and specific CTL activities | – | – | – | –
2 | SEQ ID NO: 133: HLA-A*2402 binding 10-mer peptide derived from INHBB (LYLKLLPYVL) | potent IFN-gamma production | CTL lines were established | – | – | – | – | Specific CTL activity against 293T transfected with both INHBB and HLA-A24 ([4]; listed as INHBB-A24-10-180): highest specific CTL activity; also recorded: high specific CTL activity
3 | SEQ ID NO: 135: HLA-A*2402 binding 10-mer peptide derived from INHBB (RQQFFIDFRL) | potent IFN-gamma production | CTL lines were established | potent and specific CTL activities | – | – | – | Specific CTL activity against 293T transfected with both INHBB and HLA-A24 ([4]; listed as INHBB-A24-10-305): highest specific CTL activity; also recorded: high specific CTL activity
4 | SEQ ID NO: 137: HLA-A*2402 binding 10-mer peptide derived from INHBB (RALGAACLLL) | potent IFN-gamma production | CTL lines were established | – | – | – | – | Specific CTL activity against 293T transfected with both INHBB and HLA-A24 ([4]; listed as INHBB-A24-10-7): highest specific CTL activity
5 | SEQ ID NO: 210: HLA-A*2402 binding 9-mer peptide derived from KNTC2 (IFKDLGYPF) | potent IFN-gamma production | CTL lines were established | potent and specific CTL activities | – | – | – | –
6 | SEQ ID NO: 227: HLA-A*0201 binding 9-mer peptide derived from TTK (YMSCFRTPV) | – | – | – | potent IFN-gamma production | specific response | potent and specific CTL activities | Specific CTL activity against COS7 transfected with both TTK and HLA-A02 ([8]; listed as TTK-A02-9-462): high specific CTL activity; Specific CTL activity against COS7 transfected with both TTK and HLA-A02 ([8]; listed as TTK-A2-9-462): highest specific CTL activity
7 | SEQ ID NO: 228: HLA-A*0201 binding 9-mer peptide derived from TTK (KQIYAIKYV) | – | – | – | potent IFN-gamma production | CTL line and clones were established | potent and specific CTL activities | Specific CTL activity against COS7 transfected with both TTK and HLA-A02 ([8]; listed as TTK-A02-9-547): highest specific CTL activity
8 | SEQ ID NO: 233: HLA-A*0201 binding 9-mer peptide derived from TTK (SLGCILYYM) | – | – | – | potent IFN-gamma production | CTL line and clones were established | potent and specific CTL activities | Specific CTL activity against COS7 transfected with both TTK and HLA-A02 ([8]; listed as TTK-A02-9-719): high specific CTL activity; Specific CTL activity against COS7 transfected with both TTK and HLA-A02 ([8]; listed as TTK-A2-9-719): highest specific CTL activity
9 | SEQ ID NO: 254: HLA-A*0201 binding 10-mer peptide derived from TTK (YMSCFRTPVV) | – | – | – | potent IFN-gamma production | CTL line and three clones were established | potent and specific CTL activities | Specific CTL activity against COS7 transfected with both TTK and HLA-A02 ([8]; listed as TTK-A02-10-462): specific CTL activity; Specific CTL activity against COS7 transfected with both TTK and HLA-A02 ([8]; listed as TTK-A2-10-462): highest specific CTL activity
10 | SIFVRVMESL [SEQ ID NO: 394] | potent IFN-gamma production | CTL lines were established | potent and specific CTL activities | – | – | – | –
11 | YLLGVVLTL [SEQ ID NO: 387] | potent IFN-gamma production | CTL lines were established | potent and specific CTL activities | – | – | – | –
